From publication PMC5035034, “Carbohydrate-Binding Non-Peptidic Pradimicins for the Treatment of Acute Sleeping Sickness in Murine Models” (PLoS Pathogens, 2016) come the findings set out here.

The assay concerns the target T1, VSG221 (variant surface glycoprotein 221, MITat 1.2) (Trypanosoma brucei, UniProt P26332).
T1 construct: soluble form VSG (sVSG) purified from parental bloodstream forms, N-glycosylated (Asn263, Asn428)
Put plainly: SPR (Biacore T200) on immobilized VSG221, […]; supported by HHA-FITC and CV-N-FITC competition on live parasites. The assay is classed as binding.

Consider `CN[C@@H]1[C@H](O[C@@H]2O[C@H](CO)[C@@H](O)[C@H](OS(=O)(=O)O)[C@H]2O)[C@@H](O)[C@H](O[C@H]2c3cc(C)c(C(=O)N[C@H](C)C(=O)O)c(O)c3-c3c(cc4c(c3O)C(=O)c3cc(OC)cc(O)c3C4=O)[C@@H]2O)O[C@@H]1C` [PRM-S, pradimicin S], for which the “SPR (Biacore T200) on immobilized VSG221, 1.56 to 50 uM; supported by HHA-FITC a” value is “A significant concentration-dependent binding to the parental Tb BSF VSG221-bound sensorchip was observed”.
